These results are taken from US4510082A, “Pharmacologically active peptides” (Eli Lilly and Company, priority 1983, dated 1985).

Counter-ions that a name gives are not always drawn.

The subject of one experiment is Cox Standard albino mice. In words: mouse writhing test (acetic acid induced). It counts as in vivo. The note with it: 0.6% acetic acid i.p., dose reducing writhing frequency by 50%. As to the method:
In the mouse writhing test, a writhing response is defined as a contraction of the abdominal musculature followed by extension of the hind limbs. Acetic acid administered intraperitoneally (10 ml./kg.) at a concentration of 0.6% was used to induce a writhing response. Five Cox Standard albino mice weighing 20-22 g. after being fasted overnight were observed simultaneously for the writhing response. Each mouse was used only once. The observation period was then […] and started five minutes following administration of the acetic acid. Inhibition of mouse writhing was calculated from the total number of writhes in the control and test compound-treated groups according to the following formula: [formula]
The dose required to reduce the frequency of writhing by 50% is defined as the ED50 and is calculated by "The use of Regression Line in Reverse", [Brownlee, K.A., Statistical Theory and Methodology in Science and Engineering, 2nd Ed., New York, John Wiley and Sons (1965)].

The test system of another experiment is mouse (Harlan ND4). Put plainly: mouse hot plate test (mouse jump). It counts as in vivo. The note with it: subcutaneous injection, tested 15 minutes after administration, hot plate 55° C. As for the experimental part:
In the mouse hot plate test, an upright acrylic cylinder comprising, as its base, a hot plate surface which is maintained at 55° C. is used. A mouse (Harlan ND4) is given, by subcutaneous injection, a predetermined amount of test compound dissolved or suspended in a suitable carrier, and, 15 minutes after administration of the test compound, the mouse is placed on the hot plate surface. The latency in seconds until the mouse jumps from the hot plate surface is measured. […] This must occur in a dose range which produces no motor incoordination or incapacitation. The following Table records ED50 results obtained from this test. By the term "ED50 " is meant that dose which produces analgesia in 50% of the mice tested. Analgesia is defined as a response latency in the presence of test compound that is equal to or greater than the control response latency plus two standard deviations. The percent analgesia data are converted to probits, and the ED50 is calculated by regression analysis of the dose-response data. Each dose response curve must have at least four points, and each point is determined using data from a minimum of ten treated mice and ten control mice.

In another experiment the test system is mice. The following applies: cited from earlier work.

On to `CCN(C(=O)CNC(=O)[C@@H](C)NC(=O)[C@H](Cc1ccc(O)cc1)NC)[C@@H](Cc1ccccc1)CN(C)C` [Ala Et H, L-(N-Methyl)tyrosyl-D-alanylglycine, [N-ethyl-N-(1-benzyl-2-dimethylamino)ethyl]amide, Diacetate Salt], for which, in the experiment on Cox Standard albino mice, the “Mouse Writhing, ED50, Oral” value amounted to 50.4 mg/kg and the “Mouse Writhing, ED50, Subcutaneous” value was 1.14 mg/kg. In addition, the “Mouse Jump ED50” value in the experiment with mouse (Harlan ND4) was found to be 0.04 mg/kg.

For the compound `CCN(C(=O)CNC(=O)[C@@H](C)NC(=O)[C@H](Cc1ccc(O)cc1)NC)[C@@H](Cc1ccc(F)cc1)CN(C)C` [Ala Et p-F, L-(N-Methyl)tyrosyl-D-alanylglycine[N-ethyl-N-[1-(4'-fluorobenzyl)-2-dimethylamino]ethyl]amide, Diacetate Salt], in the experiment on Cox Standard albino mice, the “Mouse Writhing, ED50, Oral” value amounted to 88.2 mg/kg and the “Mouse Writhing, ED50, Subcutaneous” value stood at 2.1 mg/kg. Moreover, the “Mouse Jump ED50” value in the experiment on mouse (Harlan ND4) is 0.04 mg/kg.

For the compound `CN[C@@H](Cc1ccc(O)cc1)C(=O)N[C@H](C)C(=O)NCC(=O)N(C)[C@@H](Cc1ccccc1)CN(C)C` [Ala Me H, L-(N-Methyl)tyrosyl-D-alanylglycine, [N-methyl-N-(1-benzyl-2-dimethylamino)ethyl]amide, Diacetate Salt], in the experiment on Cox Standard albino mice, the “Mouse Writhing, ED50, Oral” value is given as ~ 160 mg./kg and the “Mouse Writhing, ED50, Subcutaneous” value stood at 1.81 mg/kg. Moreover, the “Mouse Jump ED50” value in the experiment on mouse (Harlan ND4) came out at 0.05 mg/kg.

Take `CCN(C(=O)CNC(=O)[C@@H](COC)NC(=O)[C@H](Cc1ccc(O)cc1)NC)[C@@H](Cc1ccccc1)CN(C)C` [Ser(Me) Et H, L-(N-Methyl)tyrosyl-D-(O-methyl)serylglycine, [N-ethyl-N-(1-benzyl-2-dimethylamino)ethyl]amide, Diacetate Salt]: in the experiment on Cox Standard albino mice, the “Mouse Writhing, ED50, Oral” value was determined as 53.5 mg/kg and the “Mouse Writhing, ED50, Subcutaneous” value is 3.6 mg/kg. Moreover, in the experiment on mouse (Harlan ND4), the “Mouse Jump ED50” value was 0.09 mg/kg.

With “H-Tyr-Gly-Gly-Phe-Leu-OH [leucine enkephalin]”, the “analgesic activity upon intracerebroventricular administration” value in the experiment on mice is recorded as “exhibit analgesic activity”.

For “H-Tyr-Gly-Gly-Phe-Met-OH [methionine enkephalin]”, the “analgesic activity upon intracerebroventricular administration” value with mice is listed as “exhibit analgesic activity”.
